In ChEMBL document CHEMBL4138095, “Thiosemicarbazones and 4-thiazolidinones indole-based derivatives: Synthesis, evaluation of antiproliferative activity, cell death mechanisms and topoisomerase inhibition assay” (Eur J Med Chem, 2017) one finds Kb, GI50 and Activity data, which are given here for 7 compounds.

SMILES strings stand for the structures. Bounds are passed on as bounds.

Data set [1] is described as follows: Binding affinity to DNA (unknown origin).
The nature of data set [2]: Growth inhibition of human HaCaT cells after 48 hrs by sulforhodamine B dye-based spectrophotometric assay. The format is cell-based. In general terms: Sulforhodamine B stains cellular protein and so reports cell mass.
For a further data set, the system named is OVCAR-3. As to the kind of experiment: Growth inhibition of human OVCAR3 cells after 48 hrs by sulforhodamine B dye-based spectrophotometric assay. It is filed as functional. The note with it: OVCAR-3, 48 h.
A further data set relates to MCF7. As to the kind of experiment: Growth inhibition of human MCF7 cells after 48 hrs by sulforhodamine B dye-based spectrophotometric assay. The note with it: MCF7, 48 h. It is filed as functional.
A further data set concerns K562. As to the kind of experiment: Growth inhibition of human K562 cells after 48 hrs by sulforhodamine B dye-based spectrophotometric assay. It is filed as functional. The note with it: K562, 48 h.
Another data set relates to NCI-H460. Briefly: Growth inhibition of human NCI-H460 cells after 48 hrs by sulforhodamine B dye-based spectrophotometric assay. The format is functional. The note with it: NCI-H460, 48 h.
The subject of the next data set is 786-0. Briefly: Growth inhibition of human 786-0 cells after 48 hrs by sulforhodamine B dye-based spectrophotometric assay. It is filed as functional. The note with it: 786-0, 48 h.
In data set [3] the test system is HT-29. As to the kind of experiment: Growth inhibition of human HT-29 cells after 48 hrs by sulforhodamine B dye-based spectrophotometric assay. It is filed as functional. The note with it: HT-29, 48 h.
Another data set relates to U-251. As to the kind of experiment: Growth inhibition of human U251 cells after 48 hrs by sulforhodamine B dye-based spectrophotometric assay. It is filed as functional. The settings on record: U-251, 48 h.
A further data set concerns NCI/ADR-RES. As to the kind of experiment: Growth inhibition of human NCI-ADR-RES cells after 48 hrs by sulforhodamine B dye-based spectrophotometric assay. The format is functional.
Data set [4] relates to HT-29. As to the kind of experiment: Cell cycle arrest in human HT-29 cells assessed as accumulation at G2/M phase at 1.25 nM after 24 hrs by propidium iodide staining-based flow cytometric method (reference value: 32.5 +/- 2.3%). On the technique in general: Flow cytometry measures light scatter and fluorescence of single cells or particles in a stream.
Data set [5] concerns HT-29. Briefly: Cell cycle arrest in human HT-29 cells assessed as accumulation at sub-G1 phase at 1.25 nM after 24 hrs by propidium iodide staining-based flow cytometric method (reference value: 3.5 +/- 0.7%).
The test system of data set [6] is HT-29. As to the kind of experiment: Cell cycle arrest in human HT-29 cells assessed as accumulation at S phase at 1.25 nM after 24 hrs by propidium iodide staining-based flow cytometric method (reference value: 17.2 +/- 1.2%).
Data set [7] deals with HT-29. Briefly: Cell cycle arrest in human HT-29 cells assessed as accumulation at G1 phase at 1.25 nM after 24 hrs by propidium iodide staining-based flow cytometric method (reference value: 46.1 +/- 2.1%).

Regarding `S=C(N/N=C/c1c2ccccc2nc2ccccc12)Nc1cccc2ccccc12`, the Kb in data set [1] was determined as 8.47 ×10⁵ /M.
As usually defined, the GI50 is the concentration that inhibits growth by half. Regarding `COc1cccc2c1C(=O)c1c(O)c3c(c(O)c1C2=O)C[C@@](O)(C(=O)CO)C[C@@H]3O[C@H]1C[C@H](N)[C@H](O)[C@H](C)O1` [DOXORUBICIN], in [2], the GI50 at 48 h was found to be 0.2 µM. Further, the GI50 in the data set on OVCAR-3 was found to be 0.22 µM; in the data set on MCF7, 70 nM; in the data set on K562 it was 930 nM; in the data set with NCI-H460 it was 0.09 µM; in the data set on 786-0, 0.11 µM; with HT-29 [3], 0.23 µM. In addition, the GI50 with U-251 worked out at 0.14 µM; with NCI/ADR-RES it was 0.77 µM.
`S=C(N/N=C/c1c[nH]c2ccc(Br)cc12)Nc1cccc2ccccc12`: halving of growth in data set [2] (GI50 at 48 h) required 6.15 µM. For the same compound, the GI50 stood at 1.6 µM with OVCAR-3; 950 nM in the data set with MCF7; 5290 nM in the data set with K562; 6.99 µM with NCI-H460; 6.56 µM with 786-0; 6.56 µM in the data set on HT-29 [3]. In addition, the GI50 in the data set with U-251 stood at 7.32 µM; in the data set with NCI/ADR-RES, 6.18 µM.
Take `COc1cc2c(c(OC)c1OC)-c1ccc(OC)c(=O)cc1[C@@H](NC(C)=O)CC2` [COLCHICINE]: the Activity in the data set on HT-29 [4] is 76%; in the data set on HT-29 [5], 3.5%; in the data set on HT-29 [6] it was 5.9%; in the data set with HT-29 [7] it was 14.6%.
`S=C(NCCc1ccccc1)N/N=C/c1c[nH]c2ccccc12` had a GI50 at 48 h in data set [2] greater than 100 µM. Besides, the GI50 with OVCAR-3 was greater than 100 µM; with MCF7 it was 15500 nM; with K562, 170 nM; with NCI-H460, greater than 100 µM; with 786-0, 76.3 µM; in the data set with HT-29 [3] it was greater than 100 µM. The GI50 with U-251 is 77.9 µM; in the data set with NCI/ADR-RES, 38.7 µM.
In [2], `Cc1ccc(NC(=S)N/N=C/c2c[nH]c3ccccc23)cc1` returned a GI50 at 48 h of 0.99 µM. Also, the GI50 in the data set with OVCAR-3 was found to be 3.88 µM; with MCF7, 2520 nM; with K562 it was 160 nM; in the data set with NCI-H460 it was 11.7 µM; with 786-0 it was 3.99 µM; in the data set with HT-29 [3], 1.45 µM. The GI50 with U-251 turned out to be 8.11 µM; in the data set on NCI/ADR-RES, 1.46 µM.
In the case of `Cc1ccc(N2C(=O)CS/C2=N/N=C/c2c[nH]c3ccc(Br)cc23)cc1`, halving of growth in data set [2] (GI50 at 48 h) required 54 µM. For the same compound, the GI50 was 98.5 µM with OVCAR-3; 59500 nM in the data set with MCF7; 10 nM in the data set on K562; 96.6 µM with NCI-H460; 39.9 µM with 786-0; greater than 100 µM with HT-29 [3]. Moreover, the GI50 with U-251 is 54.7 µM; in the data set on NCI/ADR-RES it was 64.6 µM.
